Experimental data taken from US20260124192A1, “COMPOUNDS, COMPOSITIONS, AND METHODS OF TREATING RNA VIRAL INFECTIONS” (priority 2024, published 2026).

Test system: 13 viruses and variants
Test: organism not typed
Assay type: cell-based

Cc1c(-c2ccc(O)cc2)n(Cc2ccc(OCCN3CCCCC3)cc2)c2ccc(O)cc12 [Pipendoxifene]
potency: submicromolar potency
